According to patent US20190167660A1, “PPAR-gamma AGONIST FOR TREATMENT OF BONE DISORDERS” (InteKrin Therapeutics, Inc., priority 2016, published 2019):

Assays:
adiponectin [1] = experiment: Example 3 (INT131 activates bone remodeling): 14-day study in healthy subjects; type: in vivo, human; details: 0.1 mg INT131 daily for 14 days
Procedure: (§1) A study was conducted to determine the effect of INT131 on serum adiponectin levels. Thirty healthy subjects were randomly selected to receive either placebo, 0.1 mg INT131, 1 mg INT131 or 4 mg INT131 daily for 14 days. To measure adiponectin levels blood was drawn at Days 1, 4, 8 and 14.

adiponectin [2] = experiment: randomized, double-blind, placebo-controlled, 24-week study in subjects with type 2 diabetes: adiponectin levels; type: in vivo, human; details: for Mean Change in adiponectin from baseline (Week 0) to Week 24: LOCF, type 2 diabetes subjects
Procedure: A randomized, double-blind, placebo-controlled, 24-week study was conducted in which adiponectin levels were measured. […] 367 subjects with type 2 diabetes (TD2)—a disease in which patient adiponectin levels are reduced—were randomly assigned to receive either 0.5, 1, 2 or 3 milligrams (“mg”) of INT131 besylate, 45 mg of pioglitazone or placebo daily for 24 weeks. To measure adiponectin levels blood was drawn at Weeks 0, 2, 6, 12 and 24.
At baseline (Week 0) mean adiponectin levels were 1.94 micrograms per milliliter (“μg/mL”). The mean adiponectin levels at baseline and Week 24, and the mean change in adiponectin levels from baseline (Week 0) to Week 24 are disclosed in Table 1, below. The standard deviation for samples tested in each group is listed in (parenthesis). Mean baseline adiponectin values were similar for the treatment groups.

HbA1c [3] = details: DePaoli et al., Diabetes Care 2014; cited from earlier work
[4] = DePaoli et al., Diabetes Care 2014; cited from earlier work
HbA1c [5] = experiment: 24-week study in subjects with type 2 diabetes: HbA1c levels; type: in vivo, human; details: 2 and 3 mg doses of INT131, daily for 24 weeks
[6] = tested on: mesenchymal stem cells (MSCs); experiment: differentiation of mesenchymal stem cells into osteoblasts / adipocytes; type: cell-based; details: no method described
diet-induced obese mice = details: 10 mg/kg of INT131, Lee et al. 2012; cited from earlier work
adiponectin [7] = experiment: 14-day study in healthy subjects: serum adiponectin levels; type: in vivo, human
Procedure: as §1

[8] = 0.1 mg INT131 daily for 14 days

Row | Compound | change from Day 1 to Day 14 (sentence breaks off) (adiponectin [1]) | Mean Change in adiponectin from baseline (Week 0) to Week 24 (adiponectin [2]; 0.5 mg INT131 besylate daily) | Mean Change in adiponectin from baseline (Week 0) to Week 24 (adiponectin [2]; 1 mg INT131 besylate daily) | treatment comparison with placebo, adiponectin levels (adiponectin [2]; 1 mg, 2 mg and 3 mg doses of INT131, p≤0.0109) | Mean Change in adiponectin from baseline (Week 0) to Week 24 (adiponectin [2]; 2 mg INT131 besylate daily) | Mean Change in adiponectin from baseline (Week 0) to Week 24 (adiponectin [2]; 3 mg INT131 besylate daily) | efficacy in reducing HbA1c levels compared with 45 mg of pioglitazone (HbA1c [3]) | edema, weight gain and hemodilution compared with subjects taking pioglitazone [4] | reduction of HbA1c levels compared with 45 mg of pioglitazone (HbA1c [5]) | differentiation of mesenchymal stem cells (MSCs) into osteoblasts [6] | increase of adipocytes [6] | effect on bone mass (diet-induced obese mice) | change in adiponectin levels over placebo (adiponectin [7]; [8]) | change in serum adiponectin levels from Day 1 to Day 14 (adiponectin [7]; [8]) | change in serum adiponectin levels over placebo (adiponectin [7]; 1 mg or 4 mg INT131 daily for 14 days) | Mean Change in adiponectin from baseline (Week 0) to Week 24 (adiponectin [2]; 45 mg pioglitazone daily)
1 | O=S(=O)(Nc1cc(Cl)c(Oc2cnc3ccccc3c2)c(Cl)c1)c1ccc(Cl)cc1Cl [INT131] | no significant | 0.56 µg/mL | 1.28 µg/mL | statistically significant | 3.27 µg/mL | 3.83 µg/mL | equally efficacious | less | at least as well | promotes | does not result in an increase | does not affect bone mass | no significant change | no significant change | significant change | 
2 | CCc1ccc(CCOc2ccc(CC3SC(=O)NC3=O)cc2)nc1 (stereo not shown) [pioglitazone, reference compound] |  |  |  |  |  |  |  |  |  |  |  |  |  |  |  | 2.96 µg/mL
